Reference: PubChem BioAssay AID256 (DTP/NCI, 2004)
“And” between values parts separate entries of the source, which are not always exact repeats. Equal entries are not always repeated. Toxic doses and inconclusive results are not listed. The calls were made as follows: active = survival T/C of 150% or more; inactive = T/C below 125% in these data.

Test system: CD2F1 mice, L1210 leukemia ip, survival T/C
Test: NCI In Vivo Anticancer Drug Screen. Data for tumor model L1210 Leukemia (intraperitoneal) in CD2F1 (CDF1) mice
Details: higher = longer survival
In short: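 Mice carrying a transplanted tumor received test compound or vehicle alone. The value is the measurement in the treated group divided by that in the vehicle-treated control group.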

[1] = endpoint: mean survival time, dose: 100.0 mg/kg/injection, schedule: Q04DX003 (ip), vehicle: saline with Tween-80
[2] = endpoint: mean survival time, dose: 200.0 mg/kg/injection, schedule: Q04DX003 (ip), vehicle: saline with Tween-80
[3] = endpoint: mean survival time, dose: 400.0 mg/kg/injection, schedule: Q04DX003 (ip), vehicle: saline with Tween-80
[4] = endpoint: mean survival time, dose: 100.0 mg/kg/injection, schedule: Q01DX009 (ip), vehicle: saline
[5] = endpoint: mean survival time, dose: 200.0 mg/kg/injection, schedule: Q01DX009 (ip), vehicle: saline
[6] = endpoint: mean survival time, dose: 400.0 mg/kg/injection, schedule: Q01DX009 (ip), vehicle: saline
[7] = endpoint: mean survival time, dose: 100.0 mg/kg/injection, schedule: Q01DX009 (ip), vehicle: saline with Tween-80
[8] = endpoint: mean survival time, dose: 200.0 mg/kg/injection, schedule: Q01DX009 (ip), vehicle: saline with Tween-80
[9] = endpoint: mean survival time, dose: 400.0 mg/kg/injection, schedule: Q01DX009 (ip), vehicle: saline with Tween-80
[10] = endpoint: mean survival time, dose: 100.0 mg/kg/injection, schedule: Q04DX003 (ip), vehicle: saline
[11] = endpoint: mean survival time, dose: 12.5 mg/kg/injection, schedule: Q01DX009 (ip), vehicle: saline with Tween-80
[12] = endpoint: mean survival time, dose: 25.0 mg/kg/injection, schedule: Q01DX009 (ip), vehicle: saline with Tween-80
[13] = endpoint: mean survival time, dose: 50.0 mg/kg/injection, schedule: Q01DX009 (ip), vehicle: saline with Tween-80

Measured: T/C

CC(CN=Cc1ccccc1[O-])N=Cc1ccccc1[O-].[O]=[V] (stereo not drawn)
inactive: endpoint: mean survival time, dose: 5.0 mg/kg/injection, schedule: Q04DX003 (ip), vehicle: saline with Tween-80 90 % of control | endpoint: mean survival time, dose: 10.0 mg/kg/injection, schedule: Q04DX003 (ip), vehicle: saline with Tween-80 94 % of control | endpoint: mean survival time, dose: 20.0 mg/kg/injection, schedule: Q04DX003 (ip), vehicle: saline with Tween-80 90 % of control

Cc1c(OCc2ccccc2)cccc1[N+](=O)[O-]
inactive: endpoint: mean survival time, dose: 100.0 mg/kg/injection, schedule: Q01DX009 (ip), vehicle: other 97 % of control | [1] 92 % of control | endpoint: mean survival time, dose: 200.0 mg/kg/injection, schedule: Q01DX009 (ip), vehicle: other 105 % of control | [2] 87 % of control | endpoint: mean survival time, dose: 400.0 mg/kg/injection, schedule: Q01DX009 (ip), vehicle: other 112 % of control | [3] 90 % of control

COC(=O)c1ccncc1
inactive: [4] 102 % of control | [5] 108 % of control | [6] 100 % of control

CC(=O)NC(C=O)OCC=O (stereo not drawn)
inactive: endpoint: median survival time, dose: 6.0 mg/kg/injection, schedule: Q01DX009 (ip), vehicle: water 100 % of control | endpoint: median survival time, dose: 6.25 mg/kg/injection, schedule: Q01DX009 (ip), vehicle: water 105 % of control | endpoint: median survival time, dose: 12.0 mg/kg/injection, schedule: Q01DX009 (ip), vehicle: water 103 % of control | endpoint: median survival time, dose: 12.5 mg/kg/injection, schedule: Q01DX009 (ip), vehicle: water 105 % of control | endpoint: median survival time, dose: 25.0 mg/kg/injection, schedule: Q01DX009 (ip), vehicle: water 105 % of control and 108 % of control | endpoint: median survival time, dose: 50.0 mg/kg/injection, schedule: Q01DX009 (ip), vehicle: water 102 % of control and 108 % of control | endpoint: median survival time, dose: 100.0 mg/kg/injection, schedule: Q01DX009 (ip), vehicle: water 116 % of control and 111 % of control | endpoint: median survival time, dose: 200.0 mg/kg/injection, schedule: Q01DX009 (ip), vehicle: water 115 % of control and 108 % of control

CCOC(=O)C[Si](C)(C)C
inactive: endpoint: mean survival time, dose: 25.0 mg/kg/injection, schedule: Q01DX005 (ip), vehicle: water 101 % of control | endpoint: mean survival time, dose: 50.0 mg/kg/injection, schedule: Q01DX005 (ip), vehicle: water 104 % of control | endpoint: mean survival time, dose: 100.0 mg/kg/injection, schedule: Q01DX005 (ip), vehicle: water 101 % of control | endpoint: mean survival time, dose: 200.0 mg/kg/injection, schedule: Q01DX005 (ip), vehicle: water 104 % of control | endpoint: mean survival time, dose: 400.0 mg/kg/injection, schedule: Q01DX005 (ip), vehicle: water 101 % of control

COC1OC(CN2C(=O)c3ccccc3C2=O)C2OC(C)(C)OC12 (stereo not drawn)
inactive: [7] 98 % of control | [8] 94 % of control | [9] 98 % of control

S=C(S)N1CCCC1
inactive: [10] 95 % of control | endpoint: mean survival time, dose: 200.0 mg/kg/injection, schedule: Q04DX003 (ip), vehicle: saline 95 % of control | endpoint: mean survival time, dose: 400.0 mg/kg/injection, schedule: Q04DX003 (ip), vehicle: saline 92 % of control

COc1ccc2c(c1O)CNCC2c1ccc(O)cc1O (stereo not drawn)
inactive: endpoint: mean survival time, dose: 75.0 mg/kg/injection, schedule: Q01DX001 (ip), vehicle: saline 100 % of control | endpoint: mean survival time, dose: 150.0 mg/kg/injection, schedule: Q01DX001 (ip), vehicle: saline 98 % of control

CC(=O)c1c(C)cc(=O)[nH]c1C
inactive: endpoint: mean survival time, dose: 100.0 mg/kg/injection, schedule: Q04DX002 (ip), vehicle: saline with Tween-80 96 % of control | endpoint: mean survival time, dose: 200.0 mg/kg/injection, schedule: Q04DX002 (ip), vehicle: saline with Tween-80 96 % of control | endpoint: mean survival time, dose: 400.0 mg/kg/injection, schedule: Q04DX002 (ip), vehicle: saline with Tween-80 100 % of control

CC(Oc1ccccc1-c1ccccc1)C(=O)N(C)C (stereo not drawn)
inactive: [11] 93 % of control and 102 % of control | [12] 95 % of control and 100 % of control | [13] 97 % of control and 104 % of control | [7] 97 % of control and 104 % of control | [8] 95 % of control and 102 % of control | [9] 97 % of control and 104 % of control

C[Si](c1ccccc1)c1ccccc1
inactive: endpoint: mean survival time, dose: 100.0 mg/kg/injection, schedule: Q01DX001 (ip), vehicle: other 97 % of control | endpoint: mean survival time, dose: 200.0 mg/kg/injection, schedule: Q01DX001 (ip), vehicle: other 100 % of control | endpoint: mean survival time, dose: 400.0 mg/kg/injection, schedule: Q01DX001 (ip), vehicle: other 100 % of control

CN(C)Cc1[c-]c(CN(C)C)ccc1.[Cl][Pt]
inactive: endpoint: median survival time, dose: 1.56 mg/kg/injection, schedule: Q04DX003 (ip), vehicle: saline 101 % of control | endpoint: median survival time, dose: 3.12 mg/kg/injection, schedule: Q04DX003 (ip), vehicle: saline 91 % of control and 107 % of control | endpoint: median survival time, dose: 6.25 mg/kg/injection, schedule: Q04DX003 (ip), vehicle: saline 111 % of control | endpoint: median survival time, dose: 12.5 mg/kg/injection, schedule: Q04DX003 (ip), vehicle: saline 96 % of control and 107 % of control | endpoint: median survival time, dose: 25.0 mg/kg/injection, schedule: Q04DX003 (ip), vehicle: saline 100 % of control and 107 % of control | endpoint: median survival time, dose: 50.0 mg/kg/injection, schedule: Q04DX003 (ip), vehicle: saline 100 % of control and 101 % of control | endpoint: median survival time, dose: 100.0 mg/kg/injection, schedule: Q04DX003 (ip), vehicle: saline 98 % of control

c1ccc(OCCOc2ccccc2)cc1
inactive: endpoint: mean survival time, dose: 50.0 mg/kg/injection, schedule: Q04DX003 (ip), vehicle: saline with Tween-80 98 % of control | [1] 89 % of control | [2] 91 % of control

O=S(=O)(O)SCC1=NCCCCN1
inactive: [1] 101 % of control

O=C(O)/C=C/C(=O)Nc1ccccc1Cl
inactive: [7] 96 % of control | [1] 94 % of control | [8] 96 % of control | [2] 105 % of control | [3] 101 % of control

C=C(C)CON=C(c1ccccc1)c1ccccc1
inactive: [7] 98 % of control | [8] 96 % of control | [9] 98 % of control

CC(=O)Nc1ccccc1Sc1ccncc1[N+](=O)[O-]
inactive: [7] 100 % of control | [1] 88 % of control | [8] 100 % of control | [2] 92 % of control | [9] 90 % of control | [3] 95 % of control

COc1ccc(CCNc2ccc(OC)c(OC)c2)cc1OC
inactive: endpoint: mean survival time, dose: 12.5 mg/kg/injection, schedule: Q01DX009 (ip), vehicle: water 100 % of control | endpoint: mean survival time, dose: 25.0 mg/kg/injection, schedule: Q01DX009 (ip), vehicle: water 96 % of control | endpoint: mean survival time, dose: 50.0 mg/kg/injection, schedule: Q01DX009 (ip), vehicle: water 100 % of control | endpoint: mean survival time, dose: 100.0 mg/kg/injection, schedule: Q01DX009 (ip), vehicle: water 96 % of control | endpoint: mean survival time, dose: 200.0 mg/kg/injection, schedule: Q01DX009 (ip), vehicle: water 91 % of control

COc1ccc(CCl)cc1CCl
inactive: [1] 102 % of control | [2] 91 % of control

CC(CO)(CO)[N+](=O)[O-]
inactive: [4] 98 % of control | [5] 102 % of control | [6] 104 % of control

CCCCOC(=O)/C=C(\Br)C(=O)OCCCC
inactive: endpoint: mean survival time, dose: 6.25 mg/kg/injection, schedule: Q01DX009 (ip), vehicle: saline with Tween-80 92 % of control and 96 % of control | [11] 94 % of control and 105 % of control | [12] 95 % of control and 100 % of control | [13] 100 % of control | [7] 92 % of control

O=C(COc1ccc(Cl)cc1Cl)Nc1ccc(F)cc1
inactive: [1] 88 % of control | [2] 90 % of control | [3] 89 % of control

Cn1c(N)n[nH]c1=S
inactive: [1] 93 % of control | [2] 108 % of control | [3] 88 % of control

CN(C)CCC(=O)/C=C\c1ccccc1
inactive: [10] 89 % of control

NC(=O)c1cc2c3ccccc3ncc2c2ccccc12
inactive: [1] 101 % of control | [2] 97 % of control | [3] 94 % of control

N#CC(CC(=O)c1ccc(Br)cc1)c1ccccc1 (stereo not drawn)
inactive: [1] 95 % of control | [2] 91 % of control | [3] 95 % of control
